Test results published in patent US5342942A, “Pyrazoloquinazolone derivatives as neurotrophic agents” (Warner-Lambert Company, priority 1993, dated 1994).
Structures can show the parent of a compound that is named as a salt.

Key:
[1] = target: T1, extracellular domain of the p75 receptor (Homo sapiens); test: inhibition of ^125 I-NGF binding to the extracellular domain of the p75 receptor (truncated form, residues 1-222, microtiter plate); conditions: 2 nM ^125 I-NGF, 2 hours at room temperature; read-out: Concentration (IC50, nM): inhibition of ^125 I-NGF binding to the extracellular domain of the p75 receptor
T1 construct: purchased Chiron Corporation, Emeryville, Calif; (originally); also commercially available from Austral Biologicals, Inc. (San Diego, Calif.)
Description: (§1) Assays of novel compounds are performed by measuring the compounds' ability to inhibit the binding of NGF to the NGF p75 receptor, using a truncated form (Residues 1-222, molecular weight=56 KDa) of the p75 receptor, originally obtained from Chiron Corporation, Emeryville, Calif., but also commercially available from Austral Biologicals, Inc. (San Diego, Calif.), on plastic 96-well microtiter plates (Immulon 11 Dynatech). The wells are coated with 50 μL/well of 20 μg/mL streptavidin in a […] (DPBS). The plates are then incubated at room temperature for 6 hours. The excess streptavidin is then poured out, the wells are washed with a 0.1% solution of bovine serum albumin (BSA) in DPBS. To each well is then added 50 μg/mL of a DPBS solution containing the truncated p75 receptor, which has previously been reacted with biotin by standard procedures. The plates are then incubated at room temperature for 2 hours and washed with 0.2% BSA/DPBS. To each well is added 98 μL of 2 nM ^125 I-NGF, followed by 2 μL/well of a concentration of test compound that is 50 times greater than the desired final test concentration. The plates are incubated for 2 hours at room temperature. The assay is read as the IC50, the concentration of compound that blocks 50% of the binding of ^125 I-NGF to the p75 receptor. […]

[2] = test system: NGF; test: interaction with NGF bound to a sepharose support (FIG. 6); type: binding
Source text: (§2) In principle, a compound may inhibit the binding of NGF to the p75 receptor by interacting with either protein. The compounds of the present invention are studied further as exemplified here with the compound of Example 3.

[3] = test system: p75; test: inhibition of crosslinking of ^125 I-NGF to p75 (FIG. 4); type: binding
Source text: as §2

[4] = test system: PC12 cells that express both p75 and trk; test: inhibition of ^125 I-NGF binding in PC12 cells that express both p75 and trk (FIG. 3); conditions: p75 about 80% and trk about 20% of total NGF receptors
Source text: as §2

[5] = test system: full length p75 receptor; test: inhibition of ^125 I-NGF binding to full length p75 receptor expressed in CHO cells that lack trk (FIG. 2); conditions: CHO cells that lack trk expression
Source text: as §2

[6] = test system: NGF receptors; test: direct binding to NGF receptors with radioiodinated derivative of Compound 3 (FIG. 5); conditions: utilizing a radioiodinated derivative of Compound 3 (corresponding to Example 3j)
Source text: as §2

[7] = target: T2, extracellular domain of the p75 receptor (Homo sapiens, UniProt P01138); test: inhibition of ^125 I-NGF binding to the extracellular domain of the p75 receptor (truncated form, residues 1-222, microtiter plate); conditions: FIG. 1, result in words
T2 construct: purchased Chiron Corporation, Emeryville, Calif; (originally); also commercially available from Austral Biologicals, Inc. (San Diego, Calif.)
Description: as §1

T1 sequence (P01138 122-241): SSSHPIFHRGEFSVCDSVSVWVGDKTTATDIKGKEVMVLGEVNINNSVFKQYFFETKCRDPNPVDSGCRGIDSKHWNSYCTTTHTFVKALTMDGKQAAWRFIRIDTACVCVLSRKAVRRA
T2 sequence (P01138 122-241): as above

SMILES | IC50 [1] [nM] | further results
Cn1c2ccc(N)cc2c(=O)n2nc(C(=O)O)cc12 [Example 1, 7-Amino-4,9-dihydro-4-methyl-9-oxopyrazolo[5,1-b]-quinazoline-2-carboxylic acid] | 1900 | –
Cn1c2ccc(NC(=O)c3ccccc3)cc2c(=O)n2nc(C(=O)O)cc12 [Example 3, 7-(Benzoylamino)-4,9-dihydro-4-methyl-9-oxopyrazolo-[5,1-b]quinazoline-2-carboxylic acid] | 228 | specific interaction with NGF [2]: specific interaction between Compound 3 and NGF; inhibition of crosslinking of ^125 I-NGF to p75 [3]: can inhibit the crosslinking of ^125 I-NGF to p75; block of ^125 I-NGF binding in PC12 cells [4]: about 80%; prevention of binding of ^125 I-NGF to full length p75 receptor [5]: completely prevents binding of ^125 I-NGF to full length p75 receptor; direct binding to NGF receptors [6]: does not bind to NGF receptors directly; prevention of binding of ^125 I-NGF to the extracellular domain of p75 [7]: prevents the binding of ^125 I-NGF to the extracellular domain of p75
Cn1c2ccc(NC(=O)c3cccs3)cc2c(=O)n2nc(C(=O)O)cc12 [Example 3a, 4,9-Dihydro-4-methyl-9-oxo-7-[(2-thienylcarbonyl)amino]pyrazolo[5,1-b]quinazoline-2-carboxylic acid] | 690 | –
Cc1ccc(C(=O)Nc2ccc3c(c2)c(=O)n2nc(C(=O)O)cc2n3C)cc1 [Example 3b, 4,9-Dihydro-4-methyl-9-oxo-7-[(4-methylbenzoyl)amino]-pyrazolo[5,1-b]quinazoline-2-carboxylic acid] | 180 | –
COc1ccc(C(=O)Nc2ccc3c(c2)c(=O)n2nc(C(=O)O)cc2n3C)cc1 [Example 3c, 4,9-Dihydro-4-methyl-9-oxo-7-[(4-methoxybenzoyl)amino]-pyrazolo[5,1-b]quinazoline-2-carboxylic acid] | 10000 | –
Cn1c2ccc(NC(=O)c3ccc(Cl)cc3)cc2c(=O)n2nc(C(=O)O)cc12 [Example 3d, 7-[(4-Chlorobenzoyl)amino]-4,9-dihydro-4-methyl-9-oxopyrazolo [5,1-b]quinazoline-2-carboxylic acid] | 250 | –
Cn1c2ccc(NC(=O)Cc3ccccc3)cc2c(=O)n2nc(C(=O)O)cc12 [Example 3e, 4,9-Dihydro-4-methyl-9-oxo-7-[(phenylacetyl)aminol]-pyrazolo[5,1-b]quinazoline-2-carboxylic acid] | 568 | –
Cn1c2ccc(NC(=O)c3ccc(Cl)c(Cl)c3)cc2c(=O)n2nc(C(=O)O)cc12 [Example 3f, 7-[(3,4-Dichlorobenzoyl)amino]-4,9-dihydro-4-methyl-9-oxopyrazolo[5,1-b]quinazoline-2-carboxylic acid] | 844 | –
Cn1c2ccc(NC(=O)Nc3ccccc3)cc2c(=O)n2nc(C(=O)O)cc12 [Example 3g] | 3880 | –
Cn1c2ccc(NC(=O)CCc3ccccc3)cc2c(=O)n2nc(C(=O)O)cc12 [Example 3h, 4,9-Dihydro-4-methyl-9-oxo-7[(1-oxo-3-phenylpropyl) -amino]pyrazolo [5,1-b]quinazoline-2-carboxylic acid] | 1710 | –
Cn1c2ccc(NC(=O)c3ccc4ccccc4c3)cc2c(=O)n2nc(C(=O)O)cc12 [Example 3i] | 431 | –
Cn1c2ccc(NC(=O)c3ccc(I)cc3)cc2c(=O)n2nc(C(=O)O)cc12 [Example 3j, 4,9-Dihydro-7-[(4-iodobenzoyl)amino]-4-methyl-9-oxopyrazolo[5,1-b]quinazoline-2-carboxylic acid] | 472 | –
Cn1c2ccc(NC(=O)c3ccc([N+](=O)[O-])cc3)cc2c(=O)n2nc(C(=O)O)cc12 [Example 3k, 4,9-Dihydro-4-methyl-7-[(4-nitrobenzoyl)amino]-9-oxopyrazolo[5,1-b]quinazoline-2-carboxylic acid] | 229 | –
Cn1c2ccc(NC(=O)c3ccc(C(C)(C)C)cc3)cc2c(=O)n2nc(C(=O)O)cc12 [Example 3l, 7-[(4-tert-Butylbenzoyl)amino]-4,9-dihydro-4-methyl-9-oxopyrazolo[5,1-b]quinazoline-2-carboxylic acid] | 862 | –
Cn1c2ccc(NC(=O)C34CC5CC(CC(C5)C3)C4)cc2c(=O)n2nc(C(=O)O)cc12 [Example 3m, 4,9-Dihydro-4-methyl-9-oxo-7-[(tricyclo[3.3.1.1^3,7]-dec-1-ylcarbonyl)amino]pyrazolo[5,1-b]quinazoline-2-carboxylic acid] | 2230 | –
Cn1c2ccc(NC(=O)c3ccc(C(F)(F)F)cc3)cc2c(=O)n2nc(C(=O)O)cc12 [Example 3n, 4,9-Dihydro-4-methyl-9-oxo-7-[[(4-trifluoromethyl)benzoyl]amino]pyrazolo [5,1-b]quinazoline-2-carboxylic acid] | 2570 | –

Now from value to compound, other results behind:

IC50 [1] [nM] | SMILES | further results
748 | Cc1cccc(C(=O)Nc2ccc3c(c2)c(=O)n2nc(C(=O)O)cc2n3C)c1 [Example 3p, 4,9-Dihydro-4-methyl-7-[(3-methylbenzoyl)amino]-9-oxopyrazolo[5,1-b]quinazoline-2-carboxylic acid] | –
222 | Cn1c2ccc(NC(=O)c3ccc(-c4ccccc4)cc3)cc2c(=O)n2nc(C(=O)O)cc12 [Example 3q, 7-[[(1,1'-Biphenyl)-4-ylcarbonyl]amino]-4,9-dihydro-4-methyl-9-oxopyrazolo[5,1-b]quinazoline-2-carboxylic acid] | –
> 10000 | Cc1ccccc1C(=O)Nc1ccc2c(c1)c(=O)n1nc(C(=O)O)cc1n2C [Example 3r, 4,9-Dihydro-4-methyl-7-[(2-methylbenzoyl)amino]-9-oxopyrazolo[5,1-b]quinazoline-2-carboxylic acid] | –
266 | Cn1c2ccc(NC(=O)c3ccc(F)cc3)cc2c(=O)n2nc(C(=O)O)cc12 [Example 3s, 4,9-Dihydro-7-[(4-fluorobenzoyl)amino]-4-methyl-9-oxopyrazolo[5,1-b]quinazoline-2-carboxylic acid] | –
166 | Cn1c2ccc(NC(=O)c3ccc(C(=O)O)cc3)cc2c(=O)n2nc(C(=O)O)cc12 [Example 3t] | –
~200 | Cc1ccc(C(=O)Nc2ccc3c(c2)c(=O)n2nc(C(=O)O)cc2n3C)cc1I [Example 3u, 4,9-Dihydro-7-[(3-iodo-4-methylbenzoyl)amino]-4-methyl-9-oxopyrazolo[5,1-b]quinazoline-2-carboxylic acid] | –
1150 | Cn1c2ccc(NC(=O)CC(=O)O)cc2c(=O)n2nc(C(=O)O)cc12 [Example 3v, 7-[(Carboxyacetyl)amino]-4,9-dihydro-4-methyl-9-oxopyrazolo[5,1-b]quinazoline-2-carboxylic acid] | –
116 | Cn1c2ccc(NC(=O)CCC(=O)O)cc2c(=O)n2nc(C(=O)O)cc12 [Example 3w, 7-[(3-Carboxy-1-oxopropyl)amino]-4,9-dihydro-4-methyl-9-oxopyrazolo[5,1-b]qruinazoline-2-carboxylic acid] | –
36 | Cn1c2ccc(NC(=O)CCCC(=O)O)cc2c(=O)n2nc(C(=O)O)cc12 [Example 3x, 7-[(4-Carboxy-1-oxobutyl)amino]-4,9-dihydro-4-methyl-9-oxopyrazolo[5,1-b]quinazoline-2-carboxylic acid] | –
1160 | Cc1ccc(C(=O)Nc2ccc3c(c2)c(=O)n2nc(C(=O)O)cc2n3C)cc1 [Example 7, 4,9-Dihydro-4-methyl-9-oxo-7-[(methylbenzoyl)amino]-pyrazolo[5,1-b]quinazoline-2-carboxylic acid; triethanolamine salt (1:1)] | –
1100 | O=C(O)c1ccc2c(=O)n3nc(C(=O)O)cc3[nH]c2c1 [H H CO2 H] | –
12900 | Cc1ccc2[nH]c3cc(C(=O)O)nn3c(=O)c2c1 [H Me H] | –
338 | Nc1ccc2[nH]c3cc(C(=O)O)nn3c(=O)c2c1 [H NH2 H] | –
1700 | CC(=O)Nc1ccc2c(c1)c(=O)n1nc(C(=O)O)cc1n2C [Me CH3 CONH H] | –
30800 | Cn1c2ccccc2c(=O)n2nc(C(=O)O)cc12 [Me H H] | –
9700 | Cc1ccc2c(c1)c(=O)n1nc(C(=O)O)cc1n2C [Me Me H] | –
